“Also recorded” adds a separate entry of the source.
Experiments:
[1] = tested on: HT22 cells; test: Oxidative glutamate toxicity (MTT cell viability); type: cell-based; settings: 5 mM glutamate, fisetin, 24 hr
Protocol: Cell viability was determined by a modified version of 3-(4,5-dimethylthiazol-2-yl)-2,5-diphenyl tetrazolium bromide (MTT) assay based on the standard procedure (Hansen M B et al. J. Immunol. Methods 119:203-210, 1989). Briefly, cells were seeded onto 96-well microtiter plates at a density of 5×10^3 cells per well. The next day, the medium was replaced with DMEM supplemented with 7.5% DFCS and the cells were treated with the different fisetin derivatives alone or in the presence of 5 mM glutamate. Twenty four hours later, the medium in each well was aspirated and replaced with fresh medium containing 2.5 μg/ml MTT. After 4 hours of incubation at 37° C., cells were solubilized with 100 μA of a solution containing 50% dimethylformamide and 20% SDS (pH 4.7). The absorbance at 570 nm was measured on the following day with a microplate reader (Molecular Devices). Results obtained from the MTT assay correlated directly with the extent of cell death as confirmed visually. Controls employing wells without cells were used to determine the effects of the agents upon the assay chemistry.
(§1) As shown in panel (A) of FIG. 3, HT22 cells were untreated (ct) or treated with 10 μM fisetin (fis) in the absence of presence of 5 mM glutamate for 24 hr and GSH was measured enzymatically and normalized to protein. As shown in panel (B) of FIG. 3, HT22 cells in 96-well plates were treated with 5 mM glutamate and the indicated concentrations of fisetin. MTT reduction was measured after 24 hr.

[2] = tested on: human brain microvascular cells; test: Protein glycation in human brain microvascular cells exposed to glucose; type: cell-based; settings: 1 μM fisetin
Protocol: In reference to FIG. 1, BSA was incubated with either 100 mM glucose (G) or 100 mM methylglyoxal (MG) for 14 days at 37° C. plus or minus 100 μM fisetin. The BSA was dialyzed vs. PBS run on SDS-PAGE and blotted with anti-carboxymethyl lysine (CML) (a glucose AGE) or anti-MG adducts from Dr. Brownlee. […] In FIG. 1, panel B, anti-MG only reacts with MG treated BSA and also causes protein polymerization. In FIG. 1, panel C, co-incubation with fisetin results in inhibition of glucose glycation in 2 assays, Western blotting with a-CML (BL, hatched bars) and a fluorescence assay for protein glycation (FL, clear bars). In FIG. 1, panel D, fisetin inhibited protein glycation caused by high glucose exposure of human brain microvascular cells. Cells were exposed to either 5 mM (−Glu) or 25 mM (+Glu) glucose for 5 days plus (F) or minus (C) 1 μM fisetin. Cells were then harvested and blotted with either anti-CML or MG antisera.

[3] = tested on: HT-22 nerve cells; test: HT-22 nerve cells exposed to glutamate: MG adducts and viability; type: cell-based; settings: 5 mM glutamate, 2 μM fisetin
Protocol: HT-22 nerve cells were exposed to 0.5 mM glutamate and Glo-1 expression monitored at 8 and 24 hrs. In panel (B) of FIG. 2, Fisetin is shown to prevent both cell death and protein glycation. HT-22 cells were exposed to 5 mM glutamate in the presence or absence of 2 μM fisetin. MG adducts were determined by Western blotting 8 hrs after glutamate exposure and viability after 24 hrs. Actin is at the bottom of the blot. In panel (C) of FIG. 2, the Glo-1 inhibitor s-p-bromobenzylglutathione […] is shown to potentiate cell death. HT-22 cells were exposed to 1 mM glutamate plus or minus 10 or 20 μM BBGD.

[4] = tested on: HT22 cells; test: GSH level in HT22 cells; type: cell-based; settings: 10 μM fisetin, absence or presence of 5 mM glutamate, 24 hr
Protocol: as §1

[5] = tested on: Akita mice; test: Urine albumin/creatinine ratio in Akita mice; type: in vivo; settings: fisetin 0.05% in diet for 18 weeks
Protocol: Urine albumin concentration was determined by competitive enzyme-linked immunoadsorbent assay using an Albuwell M kit (Exocell, Philadelphia, Pa.). Urine creatinine concentration was determined by Jaffe's reaction of alkaline picrate with creatinine using a Creatinine Companion kit (Exocell). Results are expressed as the urine albumin-to-creatinine ratio (micrograms per milligram).
Male Akita mice were fed control diet or fisetin (0.05%) for 18 weeks beginning at 6 weeks of age. Kidney hypertrophy was assessed by weighing the kidneys. Kidney function was assessed by measuring the albumin/creatinine ratio in the urine. Fisetin reduced diabetes-induced renal hypertrophy and proteinuria. All data are mean±SD of N=5-7/group.

[6] = tested on: Akita mice; test: Motor nerve conduction velocity in Akita mice; type: in vivo; settings: fisetin 0.05% in diet for 18 weeks
Protocol: Conduction velocity of large myelinated motor fibers in the sciatic:tibial nerve system was measured in mice under isoflurane anesthesia with nerve temperature maintained at 37° C., as previously described (Calcutt et al. Diabetes 39:663-666, 1990). Briefly, stimulating electrodes were placed at the left sciatic notch and Achilles tendon and recording electrodes placed in the interosseus muscles of the ipsilateral hind paw. Electromyograms were recorded on a storage oscilloscope after stimulation at each site using single square waves (5 v, 0.05 ms) and motor nerve conduction velocity (MNCV) calculated using the peak to peak distance of the resulting M waves and the distance between the two stimulation sites. The median of 3 separate MNCV measurements was used to represent values for each mouse.
Male Akita mice were fed control diet or fisetin (0.05%) for 18 weeks beginning at 6 weeks of age. Large fiber function was tested by measuring motor nerve conduction velocity and small fiber function by paw withdrawal to noxious heat. Diabetes-induced MNCV slowing and thermal hypoalgesia were ameliorated by fisetin treatment. All data are mean±SD of N=5-7/group. […] P<0.05.

[7] = tested on: C-reactive protein; test: Serum C-reactive protein in Akita mice (Western blot); type: in vivo; settings: fisetin-rich diet
Protocol: C-reactive protein in serum was measured by SDS-PAGE and Western blotting analysis of mouse serum using an antibody from R&D.
C-reactive protein is an acute phase protein that increases during chronic inflammation such as is seen in diabetes. Equal amounts of serum from wild type, wild type+fisetin, Akita and Akita+fisetin mice were analyzed by SDS-PAGE and immunoblotting with an antibody to C-reactive protein. Samples from 6-7 mice were analyzed and the average intensity of the C-reactive protein band determined. The data were analyzed by ANOVA followed by Tukey's post test. *** P<0.001.

O=c1c(O)c(-c2ccc(O)c(O)c2)oc2cc(O)ccc12 [fisetin, 2-(3,4-dihydroxyphenyl)-3,7-dihydroxychromen-4-one]
glutamate toxicity (MTT reduction) [1]: Reduction | increase of CML and MG adducts caused by high glucose ([2]; 25 mM glucose 5 days): blocked, at least in part | endogenous glycation of some proteins ([2]; low glucose medium (5 mM)): inhibits | protein glycation (MG adducts) ([3]; Western blotting 8 hrs after glutamate): prevent | cell death ([3]; viability after 24 hrs): prevent | GSH [4]: Upregulation | proteinuria (urine albumin/creatinine ratio) [5]: almost completely prevented | proteinuria (urine albumin/creatinine ratio) ([5]; listed as Fisetin): reduced | diabetes-induced MNCV slowing [6]: ameliorated; also recorded: prevented | diabetes-induced increase in serum C-reactive protein [7]: largely prevented
